In US5736522A, “Esculetin derivatives and method for manufacture thereof, use thereof, and pharmaceutical composition” (Kureha Chemical Industry Co., Ltd., priority 1993, dated 1998):

Experiments:
GAG in the matrix = test: Suppression of reduction in GAG in the matrix caused by stimulation of interleukin-1 or the like
[1] = test system: Crj: CD-1 (ICR) male mice; test: Acute toxicity of esculetin derivatives, mice; conditions: mouse, in vivo
Method: (§1) The toxicity of the esculetin derivatives of the present invention was examined. Typical examples of the present derivatives were administered orally at a dose of 2000 mg/kg (body weight) to male mice and male rats which were then observed for seven days. No deaths and no remarkable toxicity were observed. The esculetin derivatives of the present invention are extremely safe compounds (see Example 27).
(§2) The acute toxicity of the present substance was examined using Crj: CD-1 (ICR) male mice (6 weeks old) and Wistar male rats (6 weeks old). 6-(β-2-acetoamide-2-deoxy-D-glucopyranosyloxy)-7-hydroxycoumarin [Ib-2] […] No deaths were observed. […] In the experiments, two animals were used for each group.

Wistar male rats = test: Acute toxicity of esculetin derivatives, rats; conditions: rat, in vivo
Method: as §1, §2

Row | Compound | suppression of the reduction in GAG in the matrix (GAG in the matrix) | deaths [1] | deaths (Wistar male rats)
1 | Cc1cc(=O)oc2cc(O)c(O)cc12 [4-methylesculetin] | strongly suppress the reduction in the GAG in the matrix |  | 
2 | O=c1ccc2cc(O)c(O)cc2o1 [esculetin] | strongly suppress the reduction in the GAG in the matrix |  | 
3 | CC(=O)N[C@H]1[C@H](Oc2cc3ccc(=O)oc3cc2O)O[C@H](CO)[C@@H](O)[C@@H]1O [Ib-2] |  | No deaths | No deaths
